{"source": "patent US20230158067A1", "about": "(priority 2020, published 2023)", "key": {"SARS-CoV2": {"test_system": "SARS-CoV2", "experiment": "microbe, parasite or virus in culture", "assay_type": "cell-based", "settings": "for Percentages of infection at 24 h: MOI 0.002, technical replicates"}, "Vero cells": {"test_system": "Vero cells", "settings": "uninfected Vero cells, MTT, 24 h"}, "[1]": {"settings": "Severe acute respiratory syndrome coronavirus 2, Vero, 24 h"}}, "note": "Values joined by “and” are separate entries in the source; they are usually repeats but may differ in a detail not shown here. Identical values can stand only once.", "data": [{"molecule": "CCC(CC)COC(=O)[C@H](C)N[P@](=O)(OC[C@H]1O[C@@](C#N)(c2ccc3c(N)ncnn23)[C@H](O)[C@@H]1O)Oc1ccccc1", "note": "[Remdesivir]", "values": [{"measurement": "Percentages of infection at 24 h", "setting": "SARS-CoV2; 0.01 μM", "value": "17.52% and 14.77% and 19.44%"}, {"measurement": "Percentages of infection at 24 h", "setting": "SARS-CoV2; 0.03 μM", "value": "20.60% and 10.69% and 23.44%"}, {"measurement": "Percentages of infection at 24 h", "setting": "SARS-CoV2; 0.08 μM", "value": "37.97% and 32.40% and 10.00%"}, {"measurement": "Percentages of infection at 24 h", "setting": "SARS-CoV2; 0.25 μM", "value": "8.05% and 17.17% and 39.50%"}, {"measurement": "Percentages of infection at 24 h", "setting": "SARS-CoV2; 0.74 μM", "value": "10.55% and 6.40% and 14.40%"}, {"measurement": "Percentages of infection at 24 h", "setting": "SARS-CoV2; 2.22 μM", "value": "2.04% and 1.54% and 1.69%"}, {"measurement": "Percentages of infection at 24 h", "setting": "SARS-CoV2; 6.67 μM", "value": "0.34% and 0.27% and 0.23%"}, {"measurement": "Percentages of infection at 24 h", "setting": "SARS-CoV2; 20.00 μM", "value": "0.78% and 0.24% and 0.27%"}, {"measurement": "EC50", "setting": "SARS-CoV2; [1]", "value": 0.654, "unit": "µM"}, {"measurement": "EC90", "setting": "SARS-CoV2; [1]", "value": 1690, "unit": "µM"}, {"measurement": "TC90", "setting": "Vero cells", "value": 3.4416, "unit": "µM"}]}]}
